Drawing on PubChem BioAssay (NCI), this text covers GI50 and TGI for 18 compounds.

Molecules are shown by their SMILES.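 Following 48 hours of exposure in 96-well plates, responses at five concentrations were used to interpolate endpoints linearly. Here, GI50 denotes the concentration required for 50% inhibition of growth. TGI: total growth inhibition.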

Test in all cases: growth of human tumour cells (NCI), 48 h
Assay [1] has as its system OVCAR-3 ovarian.
The subject of assay [2] is LOX IMVI melanoma.
Assay [3] deals with SF-539 CNS.
In assay [4] the test system is CCRF-CEM leukemia.
The subject of assay [5] is HS 578T breast.
Assay [6] concerns MDA-MB-435.
The subject of assay [7] is SK-MEL-2 melanoma.
Assay [8] deals with HCC-2998 colon.

For `CS(=O)(=O)Nc1cc(-c2ccc3ncnc(Nc4c(Cl)ccc5c4OCO5)c3c2)cnc1Cl`, the GI50 in assay [1] was 0.127 µM; in assay [2], 0.172 µM; in assay [3], 0.208 µM; in assay [4] it was 0.15 µM; in assay [5], 0.0477 µM; in assay [6], 0.251 µM. Besides, the GI50 in assay [7] is 0.232 µM; in assay [8] it was 0.262 µM. Further, the TGI in assay [1] was 0.925 µM; in assay [2], 1.08 µM; in assay [3], 0.988 µM; in assay [4] it was 6.84 µM; in assay [5], 0.521 µM; in assay [6], 1.63 µM. The figures for the TGI in assay [7] and in assay [8] were 1.04 µM and 1.51 µM, respectively.
For `CN1CC[C@@H](c2c(O)cc(O)c3c(=O)cc(-c4ccc(C(F)(F)F)cc4Cl)oc23)[C@@H]1CO`, the GI50 in assay [1] was 17 µM; in assay [2] it was 11.9 µM; in assay [3], 13.7 µM; in assay [4], 23.4 µM; in assay [5] it was 11.8 µM; in assay [6], 10 µM. The results for the GI50 in assay [7] and in assay [8] were 18.1 µM and 13.7 µM, respectively. The TGI in assay [1] was 46.9 µM; in assay [2], 25.6 µM; in assay [3], 28.8 µM; in assay [4], 70.2 µM; in assay [5], 33.6 µM; in assay [6], 23 µM. Further, the TGI in assay [7] is 41 µM; in assay [8], 33.1 µM.
In the case of `CCOC(=O)/C=C/c1ccc(C#Cc2ccccc2)cc1`, the GI50 is more than 100 µM in assay [1]; more than 100 µM in assay [2]; 1.54 µM in assay [3]; more than 100 µM in assay [4]; more than 100 µM in assay [5]; more than 100 µM in assay [6]. The GI50 in assay [7] and in assay [8] was more than 100 µM each time. For the same compound, the TGI in assay [1], in assay [2], in assay [3], in assay [4], in assay [5] and in assay [6] was more than 100 µM each time. Moreover, the TGI in assay [7] and in assay [8] was more than 100 µM each time.
For the compound `C[C@H](Nc1cc(Cl)nc2c1cnn2[C@@H]1O[C@H](COP(=O)(O)CP(=O)(O)O)[C@@H](O)[C@H]1O)c1ccccc1F`, the GI50 in assay [1], in assay [2], in assay [3], in assay [4], in assay [5] and in assay [6] was more than 100 µM throughout. In addition, the GI50 in assay [7] and in assay [8] was more than 100 µM in each case. The TGI in assay [1], in assay [2], in assay [3], in assay [4], in assay [5] and in assay [6] was more than 100 µM throughout. Further, the TGI in assay [7] and in assay [8] was more than 100 µM each time.
Regarding `Clc1nc(Cl)nc(Nc2cccc3ccccc23)n1`, the GI50 in assay [1] was more than 100 µM; in assay [2], 33.5 µM; in assay [3], more than 100 µM; in assay [4], 33.4 µM; in assay [5], more than 100 µM; in assay [6], 43.6 µM. The GI50 in assay [7] was 80.7 µM; in assay [8], more than 100 µM. Besides, the TGI in assay [1], in assay [2], in assay [3], in assay [4], in assay [5] and in assay [6] was more than 100 µM throughout. In addition, the TGI in assay [7] and in assay [8] was more than 100 µM throughout.
`O=S(=O)(Nc1ccc(Cl)cc1Cl)c1ccc(-c2cnc(C3CC3)o2)cc1`: the GI50 in assay [1] is 0.439 µM; in assay [2], 0.542 µM; in assay [3], 0.414 µM; in assay [4], 0.509 µM; in assay [5], 0.365 µM; in assay [6] it was 0.182 µM. Also, the GI50 in assay [7] was 3.03 µM; in assay [8] it was 1.6 µM. In addition, the TGI in assay [1] is 15 µM; in assay [2], 34 µM; in assay [3], 7.55 µM; in assay [4], more than 100 µM; in assay [5], 48.5 µM; in assay [6], 0.727 µM. The TGI in assay [7] is 42.2 µM; in assay [8], 16.5 µM.
In the case of `CC1CCN(C(=O)OCc2nc3nc(Cl)nc(N4CCOCC4)c3[nH]2)CC1`, the GI50 was 0.438 µM in assay [1]; 0.175 µM in assay [2]; 1.11 µM in assay [3]; 0.29 µM in assay [4]; 1.76 µM in assay [5]; 0.835 µM in assay [6]. Further, the values for the GI50 in assay [7] and in assay [8] were 1.86 µM and 1.69 µM, respectively. For the same compound, the TGI in assay [1] is 1.71 µM; in assay [2], 0.473 µM; in assay [3] it was 2.32 µM; in assay [4], 0.964 µM; in assay [5], 4.85 µM; in assay [6], 2.24 µM. Besides, the TGI in assay [7] is 3.77 µM; in assay [8] it was 3.29 µM.
`CCc1c(Cl)c(C)cc(O)c1Cl`: the TGI in assay [1] was more than 100 µM; in assay [2], 51.7 µM; in assay [3], 78.9 µM; in assay [4] it was 91.7 µM; in assay [5], 99.7 µM; in assay [6] it was more than 100 µM. Further, the TGI turned out to be 68.3 µM in assay [7] and 26.7 µM in assay [8].
Regarding `CN(C)CCC(=O)C(=Cc1ccc(O)cc1)C(=O)CCN(C)C`, the GI50 in assay [1] was more than 100 µM; in assay [2], 79.6 µM; in assay [3], more than 100 µM; in assay [4], 43.4 µM; in assay [5] it was more than 100 µM; in assay [6], more than 100 µM. Further, the GI50 in assay [7] and in assay [8] was more than 100 µM each time. Moreover, the TGI in assay [1], in assay [2], in assay [3], in assay [4], in assay [5] and in assay [6] was more than 100 µM each time. The TGI in assay [7] and in assay [8] was more than 100 µM each time.
As to `BrCc1cccc(C[P+](c2ccccc2)(c2ccccc2)c2ccccc2)c1`, the GI50 is 10.8 µM in assay [1]; 14 µM in assay [2]; 6.05 µM in assay [3]; 13.3 µM in assay [4]; 18.4 µM in assay [5]; 8.38 µM in assay [6]. Moreover, the GI50 was 27.9 µM in assay [7] and 21.8 µM in assay [8]. Moreover, the TGI in assay [1], in assay [2], in assay [3], in assay [4], in assay [5] and in assay [6] was more than 100 µM throughout. The TGI in assay [7] and in assay [8] was more than 100 µM each time.
Consider `CCOC(=O)c1c(-c2ccc(OC)cc2)c(C#N)c2c(C#N)c(N)nn2c1N`, for which the GI50 was 3.28 µM in assay [1]; 4.81 µM in assay [2]; 2.39 µM in assay [3]; 2.46 µM in assay [4]; 2.96 µM in assay [5]; 0.613 µM in assay [6]. The GI50 in assay [7] was 3.35 µM; in assay [8], 7.64 µM. Also, the TGI in assay [1] is 14.2 µM; in assay [2], more than 100 µM; in assay [3] it was 8.6 µM; in assay [4], more than 100 µM; in assay [5], 27.6 µM; in assay [6], 2.89 µM. In addition, the TGI is 26.5 µM in assay [7] and more than 100 µM in assay [8].
In the case of `CN(C)C(=S)Sc1ccc([N+](=O)[O-])cc1[N+](=O)[O-]`, the GI50 was 0.99 µM in assay [1]; 1.53 µM in assay [2]; 3.8 µM in assay [3]; 0.406 µM in assay [4]; 9.95 µM in assay [5]; 1.54 µM in assay [6]. The figures for the GI50 in assay [7] and in assay [8] were 4.21 µM and 6.9 µM, respectively. Further, the TGI in assay [1] was 2.49 µM; in assay [2], 3.63 µM; in assay [3], 14.6 µM; in assay [4] it was more than 43.6 µM; in assay [5], 56.3 µM; in assay [6], 5.36 µM. Besides, the results for the TGI in assay [7] and in assay [8] were 9.86 µM and 17.4 µM, respectively.
Turning to `CCc1ccc(/C=C/c2ccc(O)c3ncccc23)[n+](C)c1`, the GI50 in assay [1] was 0.671 µM; in assay [2], 35.8 µM; in assay [3], 20.4 µM; in assay [4], 4.95 µM; in assay [5] it was 51.2 µM; in assay [6], 4.49 µM. Further, the GI50 in assay [7] is more than 71.7 µM; in assay [8] it was more than 30.5 µM. Besides, the TGI in assay [1] was more than 23.4 µM; in assay [2], more than 100 µM; in assay [3] it was more than 100 µM; in assay [4], more than 100 µM; in assay [5] it was more than 100 µM; in assay [6], more than 100 µM. Besides, the TGI in assay [7] and in assay [8] was more than 100 µM throughout.
For `Nc1c(C(=O)c2ccccc2)cnn1-c1ccc(F)cc1`, the GI50 in assay [1], in assay [2], in assay [3], in assay [4], in assay [5] and in assay [6] was more than 25 µM throughout. Also, the GI50 in assay [7] and in assay [8] was more than 25 µM in each case. Besides, the TGI in assay [1], in assay [2], in assay [3], in assay [4], in assay [5] and in assay [6] was more than 25 µM each time. Also, the TGI in assay [7] and in assay [8] was more than 25 µM throughout.
As for `O=C1c2cccc3cccc(c23)C(=O)N1CCCCCN1CCN(CCCCCOc2ccc(-c3nc4ccc(N5CCOCC5)cc4[nH]3)cc2)CC1`, the GI50 in assay [1] was 6.07 µM; in assay [2], 3.01 µM; in assay [3], 10.6 µM; in assay [4] it was 1.31 µM; in assay [5], 21.8 µM; in assay [6], 3.59 µM. For the same compound, the GI50 in assay [7] was 10.7 µM; in assay [8], 36.5 µM. The TGI in assay [1] stood at 11.2 µM; in assay [2] it was 7.97 µM; in assay [3] it was 29 µM; in assay [4], 8.97 µM; in assay [5], 45.4 µM; in assay [6], 13.2 µM. The values for the TGI in assay [7] and in assay [8] were 32.8 µM and more than 91 µM, respectively.
With `O=C(NNc1ccccc1)C(=O)NNc1ccccc1`, the GI50 was 17.7 µM in assay [1]; 4.34 µM in assay [2]; 2.63 µM in assay [3]; 0.637 µM in assay [4]; more than 100 µM in assay [5]; 1.84 µM in assay [6]. Besides, the GI50 in assay [7] was 2.63 µM; in assay [8] it was 2.96 µM. Further, the TGI in assay [1] was more than 100 µM; in assay [2], more than 100 µM; in assay [3], 14.5 µM; in assay [4] it was more than 100 µM; in assay [5], more than 100 µM; in assay [6] it was more than 100 µM. The TGI in assay [7] and in assay [8] was more than 100 µM each time.
`CC(C)=CCc1cc(O)cc2c1OC(C=C(C)C)C1=C2C(=O)C2=C(C1=O)S(=O)(=O)CCN2` (stereo not given): the GI50 in assay [1] was 1.18 µM; in assay [2], 3.48 µM; in assay [3], 2.8 µM; in assay [4], 5.81 µM; in assay [5] it was 3.15 µM; in assay [6], 3.05 µM. Moreover, the results for the GI50 in assay [7] and in assay [8] were 3.13 µM and 5.53 µM, respectively. In addition, the TGI in assay [1] was 14.8 µM; in assay [2], 10.2 µM; in assay [3], 5.09 µM; in assay [4] it was more than 16.7 µM; in assay [5] it was 13 µM; in assay [6], 5.8 µM. For the same compound, the TGI is 6.56 µM in assay [7] and more than 16.7 µM in assay [8].
`Cc1ccc2c(C3C(C#N)=C(N)Oc4cc5ccccc5cc43)cc(=O)oc2c1` (stereo not given): the GI50 was 0.375 µM in assay [1]; 3.17 µM in assay [2]; 0.873 µM in assay [3]; 0.976 µM in assay [4]; 3.29 µM in assay [5]; 0.286 µM in assay [6]. Further, the values for the GI50 in assay [7] and in assay [8] were 11.7 µM and 3.91 µM, respectively. Besides, the TGI was 10.7 µM in assay [1]; more than 100 µM in assay [2]; 7.6 µM in assay [3]; more than 100 µM in assay [4]; more than 100 µM in assay [5]; 1.07 µM in assay [6]. Also, the TGI in assay [7] is more than 100 µM; in assay [8], 58.6 µM.
